Legend:
BlCel5B [1] = target: T1, BlCel5B (Bacillus licheniformis, UniProt Q65JI7); assay: X-ray crystal structure ([…] A) after soaking with cellopentaose; type: binding; settings: crystal soaked with five times molar excess of cellopentaose for 24 h; cellotetraose from cleavage in the crystal; subsites -1 to -3 of the catalytic domain
T1 construct: gene celC; full-length trimodular enzyme (CD, Ig-like, CBM46) without signal peptide (nucleotides 1-81 removed; gene end nt 1683); E. coli Rosetta2 (DE3), pETTRXA-1a/LIC; His6 tag cut by TEV; monomer
T1 sequence (Q65JI7 entry or part of it): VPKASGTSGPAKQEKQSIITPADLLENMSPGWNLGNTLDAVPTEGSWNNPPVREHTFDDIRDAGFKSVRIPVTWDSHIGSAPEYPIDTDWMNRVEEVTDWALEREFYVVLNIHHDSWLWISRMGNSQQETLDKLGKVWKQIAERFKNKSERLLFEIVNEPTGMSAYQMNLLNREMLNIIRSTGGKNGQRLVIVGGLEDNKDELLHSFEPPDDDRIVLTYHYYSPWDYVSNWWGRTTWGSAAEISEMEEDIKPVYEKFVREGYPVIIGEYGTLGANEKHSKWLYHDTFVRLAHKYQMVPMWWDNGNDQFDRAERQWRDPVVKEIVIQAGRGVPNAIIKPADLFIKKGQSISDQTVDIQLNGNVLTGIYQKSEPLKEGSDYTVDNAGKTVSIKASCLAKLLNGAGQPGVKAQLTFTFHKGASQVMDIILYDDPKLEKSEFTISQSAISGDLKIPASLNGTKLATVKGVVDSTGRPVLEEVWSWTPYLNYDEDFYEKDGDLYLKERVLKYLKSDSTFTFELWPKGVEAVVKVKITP

BlCel5B [2] = target: T1, BlCel5B; assay: MALDI/TOF-MS product profile; type: biochemical; settings: 1.0 mM cellopentaose, 10 mM ammonium bicarbonate pH 7.0, 50 C, 90 min

Row | SMILES | X-ray crystal structure (1.75 A) after soaking with cellopentaose (BlCel5B [1]) | MALDI/TOF-MS product profile (BlCel5B [2])
1 | OC[C@H]1O[C@@H](O[C@H]2[C@H](O)[C@@H](O)[C@H](O[C@H]3[C@H](O)[C@@H](O)[C@H](O[C@H]4[C@H](O)[C@@H](O)C(O)O[C@@H]4CO)O[C@@H]3CO)O[C@@H]2CO)[C@H](O)[C@@H](O)[C@@H]1O (some centres unmarked) [C4, cellotetraose] | Electron density maps clearly reveal the presence of a cellotetraose (C4) | 
2 | OC[C@H]1O[C@@H](O[C@H]2[C@H](O)[C@@H](O)[C@H](O[C@H]3[C@H](O)[C@@H](O)[C@H](O[C@H]4[C@H](O)[C@@H](O)[C@H](O[C@H]5[C@H](O)[C@@H](O)C(O)O[C@@H]5CO)O[C@@H]4CO)O[C@@H]3CO)O[C@@H]2CO)[C@H](O)[C@@H](O)[C@@H]1O (some centres unmarked) [C5, cellopentaose] |  | ability of BlCel5B to cleave C5 into glucose and C4 molecules in solution was demonstrated

Source: PMC4817029, “Molecular characterization of a family 5 glycoside hydrolase suggests an induced-fit enzymatic mechanism” (Scientific Reports, 2016)
